test system: MHC class I molecules of T1 cells (human lymphoma cell line 174×CEM.); test: Effect on expression of MHC class I from T1 cells (flow cytometry, MFI); assay type: cell-based; conditions: 3 days culture
Experimental: Effect on Expression of MHC Class I from T1 Cells (Human Lymphoma Cell Line 174×CEM.)
Using a 96-well flat bottom microplate, T1 cells (5.7×10^3 cells/200 μl/well) were cultured in an RPMI 1640 medium (Iwaki Glass) containing 10% fetal bovine serum (hereinafter abbreviated as FBS; Iruvine Scientific) in an incubator containing 5% carbon dioxide at 37° C. for 3 days, in the presence of a test compound having each concentration obtained by dilution at a common ratio route of 10 from 400 μM. After completion of the culture, the cells were stained with fluoroisothiocyanate-labeled mouse anti-human MHC class I monoclonal antibody (an antibody produced from the cell line W6/32 (ATCC No. CRL 1991)). The mean fluorescence intensity of the stained cells (hereinafter referred to as MFI) was measured using flow cytometry FACScan (BD). The obtained value was defined as an expression level of MHC class I molecules. A test compound concentration necessary for suppressing 20% of the expression level of MHC class I molecules (EC20 value) was calculated using the following formula (1).
[formula] • Eexp: MFI of cultured cells containing test compound after being stained with antibody • Cexp: MFI of cultured cells containing no test compounds after being stained with antibody

| Compound | EC20 (concentration necessary for suppressing 20% of the expression level of MHC class I molecules) [nM] |
| --- | --- |
| 1-(4-methoxy-1-methylbutyl)-3-[7-(4-methoxyphenyl)-[1,2,4]triazolo[1,5-a]pyrimidin-2-yl]urea [Example 333] | 410 |
| COc1cccc(C(C)NC(=O)Nc2nc3nccc(-c4cccc(OCC5CCCO5)c4)n3n2)c1 (mixture of isomers) [Example 206] | 220 |
| COc1ccc(-c2ccnc3nc(NC(=O)NC(C)Cc4ccc(Cl)cc4)nn23)cc1 (racemic) [Example 142] | 60 |
| COc1ccc(-c2ccnc3nc(NC(=O)NC(C)c4cccc(OS(C)(=O)=O)c4)nn23)cc1 (racemic) [Example 195] | 60 |
| COc1ccc(-c2ccnc3nc(NC(=O)NC(C)c4cccc(O)c4)nn23)cc1 (racemic) [Example 196] | 170 |
| COc1ccc(-c2ccnc3nc(NC(=O)NC(C)c4cccc(OC(=O)OCc5ccccc5)c4)nn23)cc1 (racemic) [Example 197] | 210 |
| COc1ccc(-c2ccnc3nc(NC(=O)NC(C)c4cccc(OCC(C)C)c4)nn23)cc1 (racemic) [Example 230] | 220 |
| COc1ccc(-c2ccnc3nc(NC(=O)NC(C)c4cccc(OC(C)C)c4)nn23)cc1 (racemic) [Example 231] | 50 |
| COc1ccc(-c2ccnc3nc(NC(=O)NC(C)CC(C)C)nn23)cc1 (racemic) [Example 235] | 590 |
| COc1ccc(-c2ccnc3nc(NC(=O)NC(C)CCC(C)C)nn23)cc1 (racemic) [Example 236] | 80 |
| CNC(=O)Nc1nc2nccc(-c3cccs3)n2n1 [Example 013] | 480 |
| O=C(Nc1nc2nccc(-c3ccccc3)n2n1)NC1CCCCC1 [Example 014] | 570 |
| O=C(Nc1nc2nccc(-c3cccc(Cl)c3)n2n1)NC1CCCCC1 [Example 016] | 730 |
| COc1cccc(-c2ccnc3nc(NC(=O)NC4CCCCC4)nn23)c1 [Example 017] | 220 |
| COc1cccc(-c2ccnc3nc(NC(=O)NCc4ccccc4)nn23)c1 [Example 019] | 1100 |
| O=C(Nc1ccc(O)cc1)Nc1nc2nccc(-c3cccs3)n2n1 [Example 023] | 430 |
| O=C(NCc1ccccc1)Nc1nc2nccc(-c3cccc(O)c3)n2n1 [Example 025] | 500 |
| CNC(=O)Nc1nc2nccc(-c3ccc(OC)cc3)n2n1 [Example 026] | 900 |
| O=C(Nc1nc2nccc(-c3cccs3)n2n1)NC1CCCC1 [Example 028] | 152 |
| CCNC(=O)Nc1nc2nccc(-c3ccc(OC)cc3)n2n1 [Example 031] | 400 |
| CCCCNC(=O)Nc1nc2nccc(-c3ccc(OC)cc3)n2n1 [Example 032] | 250 |
| COc1ccc(-c2ccnc3nc(NC(=O)NC45CC6CC(CC(C6)C4)C5)nn23)cc1 [Example 035] | 380 |
| COc1cccc(-c2ccnc3nc(NC(=O)NC(C)C)nn23)c1 [Example 044] | 480 |
| CC(C)NC(=O)Nc1nc2nccc(-c3ccc4c(c3)CCO4)n2n1 [Example 046] | 340 |
| C[C@H](NC(=O)Nc1nc2nccc(-c3cccs3)n2n1)C(=O)OC(C)(C)C [Example 050] | 330 |
| CC(C)NC(=O)Nc1nc2nccc(-c3ccc(O)cc3)n2n1 [Example 053] | 370 |
| COc1ccc(-c2ccnc3nc(NC(=O)N[C@H](C(=O)O)C(C)C)nn23)cc1 [Example 054] | 630 |
| CNC(=O)[C@@H](NC(=O)Nc1nc2nccc(-c3ccc(OC)cc3)n2n1)C(C)C [Example 055] | 690 |

| Compound | EC20 (concentration necessary for suppressing 20% of the expression level of MHC class I molecules) [nM] |
| --- | --- |
| COc1ccc(-c2ccnc3nc(NC(=O)N[C@H](C(=O)N(C)C)C(C)C)nn23)cc1 [Example 056] | 550 |
| COc1ccc(-c2ccnc3nc(NC(=O)NCCN4CCOCC4)nn23)cc1 [Example 064] | 670 |
| COc1ccc(-c2ccnc3nc(NC(=O)NCCc4ccccn4)nn23)cc1 [Example 065] | 350 |
| COc1ccc(-c2ccnc3nc(NC(=O)NCCCn4ccnc4)nn23)cc1 [Example 066] | 720 |
| O=C(Nc1nc2nccc(-c3ccc(O)c(O)c3)n2n1)NC1CCCCC1 [Example 068] | 140 |
| COc1ccc(-c2ccnc3nc(NC(=O)N[C@H](C(=O)N4CCOCC4)C(C)C)nn23)cc1 [Example 070] | 480 |
| COc1ccc(-c2ccnc3nc(NC(=O)N[C@H](C(=O)NC4CCN(Cc5ccccc5)CC4)C(C)C)nn23)cc1 [Example 074] | 550 |
| COc1ccc(-c2ccnc3nc(NC(=O)N[C@H](C(=O)NCc4cccnc4)C(C)C)nn23)cc1 [Example 078] | 670 |
| COc1ccc(-c2ccnc3nc(NC(=O)N[C@H](C(=O)NCCN4CCOCC4)C(C)C)nn23)cc1 [Example 079] | 970 |
| COc1ccc(-c2ccnc3nc(NC(=O)N[C@H](C(=O)NCCc4ccccn4)C(C)C)nn23)cc1 [Example 080] | 710 |
| COc1ccc(-c2ccnc3nc(NC(=O)NCc4ccccn4)nn23)cc1 [Example 083] | 870 |
| CC(C)NC(=O)Nc1nc2nccc(-c3cccc(O)c3)n2n1 [Example 084] | 420 |
| O=C(Nc1nc2nccc(-c3cccc(O)c3)n2n1)NC1CCCCC1 [Example 085] | 400 |
| COc1ccc(-c2ccnc3nc(NC(=O)NC(C)C)nn23)cc1OC [Example 086] | 340 |
| CC(C)NC(=O)Nc1nc2nccc(-c3ccc4c(c3)OCO4)n2n1 [Example 087] | 780 |
| COc1ccc(-c2ccnc3nc(NC(=O)N[C@H](C(=O)Nc4ccccc4)C(C)C)nn23)cc1 [Example 088] | 150 |
| COc1ccc(-c2ccnc3nc(NC(=O)N[C@H](C(=O)NCc4ccccc4)C(C)C)nn23)cc1 [Example 089] | 210 |
| CCNC(=O)[C@@H](NC(=O)Nc1nc2nccc(-c3ccc(OC)cc3)n2n1)C(C)C [Example 090] | 400 |
| CCCCNC(=O)[C@@H](NC(=O)Nc1nc2nccc(-c3ccc(OC)cc3)n2n1)C(C)C [Example 091] | 210 |
| COc1ccc(-c2ccnc3nc(NC(=O)N[C@H](C(=O)NCC4CCCCC4)C(C)C)nn23)cc1 [Example 092] | 200 |
| COc1ccc(-c2ccnc3nc(NC(=O)N[C@H](C(=O)N(C)Cc4ccccc4)C(C)C)nn23)cc1 [Example 093] | 700 |
| COc1ccc(-c2ccnc3nc(NC(=O)N[C@H](C(=O)NC4CCCCC4)C(C)C)nn23)cc1 [Example 094] | 200 |
| COCCCNC(=O)[C@@H](NC(=O)Nc1nc2nccc(-c3ccc(OC)cc3)n2n1)C(C)C [Example 095] | 630 |
| COCCNC(=O)[C@@H](NC(=O)Nc1nc2nccc(-c3ccc(OC)cc3)n2n1)C(C)C [Example 096] | 550 |
| COCCN(CCOC)C(=O)[C@@H](NC(=O)Nc1nc2nccc(-c3ccc(OC)cc3)n2n1)C(C)C [Example 097] | 470 |
| COC(=O)[C@H](C)NC(=O)[C@@H](NC(=O)Nc1nc2nccc(-c3ccc(OC)cc3)n2n1)C(C)C [Example 098] | 140 |
| COc1ccc(-c2ccnc3nc(NC(=O)NCC4CCCCC4)nn23)cc1 [Example 099] | 440 |
